The EC50 is the concentration giving half of the maximal effect. A low value points to greater potency.

A value given as a limit tells only on which side of the number the result lay.

This note sets out measurements from patent US10806726B2, “Methods of using indazole-3-carb oxamides and their use as Wnt/B-catenin signaling pathway inhibitors” (Samumed, LLC, priority 2016, dated 2020).

For assay [1], the system named is Wnt-responsive promoter driving firefly luciferase in SW480 cells. The assay can be described thus: Wnt reporter (SP5 promoter-luciferase) screening assay in SW480 cells. The class given is cell-based. Conditions: Homo sapiens, 24-40 h, top concentration ten micromolar. The text has this: Another screening assay for Wnt activity is described as follows. Reporter cell lines can be generated by stably transducing cells of cancer cell lines (e.g., colon cancer) with a lentiviral construct that include a Wnt-responsive promoter driving expression of the firefly luciferase gene.
Lentiviral constructs can be made in which the SP5 promoter, a promoter having eight TCF/LEF binding sites derived from the SP5 promoter, is linked upstream of the firefly luciferase gene. The lentiviral constructs can also include a hygromycin resistance gene as a selectable marker. The SP5 promoter construct can be used to transduce SW480 cells, a colon cancer cell line having a mutated APC gene that generates a truncated APC protein, leading to de-regulated accumulation of β-catenin.
Cultured SW480 cells bearing a reporter construct can be distributed at approximately 10,000 cells per well into 96 well or 384 well plates. Compounds from a small molecule compound library can then be added to the wells in half-log dilutions using a ten micromolar top concentration. A series of control wells for each cell type receive only buffer and compound solvent. Twenty-four to forty hours after the addition of compound, reporter activity for luciferase can be assayed, for example, by addition of the BrightGlo luminescence reagent (Promega) and the Victor3 plate reader (Perkin Elmer). Readings can be normalized to DMSO only treated cells, and normalized activities can then be used in the EC50 calculations.

The subject of assay [2] is primary human mesenchymal stem cells (hMSCs). The assay can be described thus: Tenocyte differentiation screening in hMSCs (SCXA-positive cells, 4 days). The class given is cell-based. Conditions: 96 h, fold change over DMSO. From the text: Representative compounds were screened using primary human mesenchymal stem cells (hMSCs) to determine their ability to induce tenocyte differentiation (process by which tendon is developed).
Primary human mesenchymal stem cells (hMSCs) were purchased from Lonza (Walkersville, Md.) and expanded in Mesenchymal Stem Cell Growth Media (Lonza). Cells between passage 3 and 6 were used for the experiments.
Cells were fixed using 4% formaldehyde (Electron Microscopy Sciences), and stained with anti-Sclerasis (anti-SCXA) antibodies (Abgent, San Diego, Calif.) [Webb S., et. al., Retinoic acid receptor signaling preserves tendon stem cell characteristics and prevents spontaneous differentiation in vitro, Stem Cell Research & Therapy 2016, 7:45] overnight at 4° C. […] Number of cells positive for SCXA in each well was quantified using the Celllnsight CX5. Data was normalized to the average of 12 DMSO treated wells on the same plate using Dotmatics Studies module. The normalized averages (fold change over DMSO) of 3 replicate wells for each compound concentration were calculated. Due to solubility limitations of some of the compounds, values for higher doses were manually corrected and curve fitting and EC50 determinations were performed using Dotmatics Studies.
EC50 for each compound is reported.

As to `O=C(Nc1ccc(-c2ccc(F)cc2)nc1)c1n[nH]c2ccc(-c3cncc(CN4CCCCC4)c3)cc12` [compound 73, N-(6-(4-Fluorophenyl)pyridin-3-yl)-5-(5-(piperidin-1-ylmethyl)pyridin-3-yl)-1H-indazole-3-carboxamide], the values for the EC50 in assay [1] and in assay [2] were 322 nM and more than 100000 nM, respectively.

As to `CN(C)CCN(C)c1ccc(NC(=O)c2n[nH]c3ccc(-c4cncc(CN5CCCCC5)c4)cc23)cn1` [compound 74, N-(6-((2-(Dimethylamino)ethyl)(methyl)amino)pyridin-3-yl)-5-(5-(piperidin-1-ylmethyl)pyridin-3-yl)-1H-indazole-3-carboxamide], the concentration giving a half-maximal response (EC50) in assay [1] came to 65 nM; in assay [2], 10200 nM.

With `O=C(Nc1ccnnc1)c1n[nH]c2ccc(-c3cncc(CN4CCCCC4)c3)cc12` [compound 75, 5-(5-(Piperidin-1-ylmethyl)pyridin-3-yl)-N-(pyridazin-4-yl)-1H-indazole-3-carboxamide], the results for the EC50 in assay [1] and in assay [2] were 40 nM and 12400 nM, respectively.

For `O=C(NCc1cccnc1)c1n[nH]c2ccc(-c3cncc(CN4CCCCC4)c3)cc12` [compound 76, 5-(5-(Piperidin-1-ylmethyl)pyridin-3-yl)-N-(pyridin-3-ylmethyl)-1H-indazole-3-carboxamide], the EC50 came out at 850 nM in assay [1] and 2670 nM in assay [2].

Consider `O=C(NC1CCCCC1)c1n[nH]c2ccc(-c3cncc(CN4CCCCC4)c3)cc12` [compound 77, N-Cyclohexyl-5-(5-(piperidin-1-ylmethyl)pyridin-3-yl)-1H-indazole-3-carboxamide], for which the EC50 in assay [1] came to 2650 nM; in assay [2], 6080 nM.

On to `O=C(Nc1ccc2c(c1)OCO2)c1n[nH]c2ccc(-c3cncc(CN4CCCCC4)c3)cc12` [compound 78, N-(Benzo[d][1,3]dioxol-5-yl)-5-(5-(piperidin-1-ylmethyl)pyridin-3-yl)-1H-indazole-3-carboxamide], for which the results for the EC50 in assay [1] and in assay [2] were 239 nM and more than 100000 nM, respectively.

Turning to `O=C(Nc1ccc2c(c1)OCCO2)c1n[nH]c2ccc(-c3cncc(CN4CCCCC4)c3)cc12` [compound 79, N-(2,3-Dihydrobenzo[b][1,4]dioxin-6-yl)-5-(5-(piperidin-1-ylmethyl)pyridin-3-yl)-1H-indazole-3-carboxamide], the EC50 in assay [1] is 123 nM; in assay [2], more than 100000 nM.

As to `O=C(Nc1cncc(Cc2ccccc2)c1)c1n[nH]c2ccc(-c3cncc(CN4CCCCC4)c3)cc12` [compound 80, N-(5-Benzylpyridin-3-yl)-5-(5-(piperidin-1-ylmethyl)pyridin-3-yl)-1H-indazole-3-carboxamide], the EC50 is 158 nM in assay [1] and more than 100000 nM in assay [2].

On to `O=C(Nc1cnccn1)c1n[nH]c2ccc(-c3cncc(CN4CCCCC4)c3)cc12` [compound 81, 5-(5-(Piperidin-1-ylmethyl)pyridin-3-yl)-N-(pyrazin-2-yl)-1H-indazole-3-carboxamide], for which the figures for the EC50 in assay [1] and in assay [2] were 77 to 142 nM and more than 100000 nM, respectively.

Turning to `O=C(Nc1ccccc1)c1n[nH]c2ccc(-c3cncc(CN4CCCCC4)c3)cc12` [compound 82, N-Phenyl-5-(5-(piperidin-1-ylmethyl)pyridin-3-yl)-1H-indazole-3-carboxamide], the EC50 is 143 to 188 nM in assay [1] and more than 100000 nM in assay [2].

Take `CN1CCN(C(=O)c2n[nH]c3ccc(-c4cncc(CN5CCCCC5)c4)cc23)CC1` [compound 83, (4-Methylpiperazin-1-yl)(5-(5-(piperidin-1-ylmethyl)pyridin-3-yl)-1H-indazol-3-yl)methanone]: the EC50 in assay [1] was 2500 to 3400 nM; in assay [2], more than 100000 nM.

In the case of `C[C@@H]1CCC[C@H](C)N1Cc1cncc(-c2ccc3[nH]nc(C(=O)Nc4cccnc4)c3c2)c1` [compound 84, 5-(5-(((2R,6 S)-2,6-Dimethylpiperidin-1-yl)methyl)pyridin-3-yl)-N-(pyridin-3-yl)-1H-indazole-3-carboxamide], the EC50 in assay [1] is 822 to 898 nM; in assay [2] it was more than 100000 nM.

In the case of `CN(C)Cc1cncc(NC(=O)c2n[nH]c3ccc(-c4cncc(CN5CCCCC5)c4)cc23)c1` [compound 86, N-(5-((Dimethylamino)methyl)pyridin-3-yl)-5-(5-(piperidin-1-ylmethyl)pyridin-3-yl)-1H-indazole-3-carboxamide], the EC50 in assay [1] worked out at 66 nM; in assay [2] it was 5270 nM.

In the case of `CN1CCC(NC(=O)c2n[nH]c3ccc(-c4cncc(CN5CCCCC5)c4)cc23)CC1` [compound 87, N-(1-Methylpiperidin-4-yl)-5-(5-(piperidin-1-ylmethyl)pyridin-3-yl)-1H-indazole-3-carboxamide], the values for the EC50 in assay [1] and in assay [2] were 2440 nM and 1580 nM, respectively.

For the molecule `CN(C)Cc1cncc(NC(=O)c2n[nH]c3ccc(-c4cncc(CN5CCCC5)c4)cc23)c1` [compound 106, N-(5-((Dimethylamino)methyl)pyridin-3-yl)-5-(5-(pyrrolidin-1-ylmethyl)pyridin-3-yl)-1H-indazole-3-carboxamide], the EC50 in assay [1] worked out at 33 nM; in assay [2], 5540 nM.

Turning to `CN1CCN(Cc2cncc(NC(=O)c3n[nH]c4ccc(-c5cncc(CN6CCCCC6)c5)cc34)c2)CC1` [compound 124, N-(5-((4-Methylpiperazin-1-yl)methyl)pyridin-3-yl)-5-(5-(piperidin-1-ylmethyl)pyridin-3-yl)-1H-indazole-3-carboxamide], the EC50 in assay [1] is 67 nM; in assay [2], more than 100000 nM.

`O=C(Nc1ccc(N2CCCCC2)nc1)c1n[nH]c2ccc(-c3cncc(CN4CCCCC4)c3)cc12` [compound 126, N-(6-(Piperidin-1-yl)pyridin-3-yl)-5-(5-(piperidin-1-ylmethyl)pyridin-3-yl)-1H-indazole-3-carboxamide]: the EC50 turned out to be 22 nM in assay [1] and 5540 nM in assay [2].

`O=C(Nc1cccc(F)c1)c1n[nH]c2ccc(-c3cncc(CN4CCCCC4)c3)cc12` [compound 162, N-(3-Fluorophenyl)-5-(5-(piperidin-1-ylmethyl)pyridin-3-yl)-1H-indazole-3-carboxamide]: the EC50 in assay [1] was 426 nM; in assay [2], more than 100000 nM.

For `O=C(NC1CCOCC1)c1n[nH]c2ccc(-c3cncc(CN4CCCCC4)c3)cc12` [compound 163, 5-(5-(Piperidin-1-ylmethyl)pyridin-3-yl)-N-(tetrahydro-2H-pyran-4-yl)-1H-indazole-3-carboxamide], the EC50 amounted to 15400 nM in assay [1] and 5090 nM in assay [2].

Take `O=C(Nc1cncc(F)c1)c1n[nH]c2ccc(-c3cncc(CN4CCCCC4)c3)cc12` [compound 168, N-(5-Fluoropyridin-3-yl)-5-(5-(piperidin-1-ylmethyl)pyridin-3-yl)-1H-indazole-3-carboxamide]: the EC50 is 66 nM in assay [1] and more than 100000 nM in assay [2].

With `O=C(Nc1ccc(N2CCC(O)CC2)nc1)c1n[nH]c2ccc(-c3cncc(CN4CCCCC4)c3)cc12` [compound 169, N-(6-(4-Hydroxypiperidin-1-yl)pyridin-3-yl)-5-(5-(piperidin-1-ylmethyl)pyridin-3-yl)-1H-indazole-3-carboxamide], the EC50 in assay [1] was found to be 49 nM; in assay [2], 4900 nM.

As for `O=C(Nc1ccc(N2CCCC2)nc1)c1n[nH]c2ccc(-c3cncc(CN4CCC(O)CC4)c3)cc12` [compound 170, 5-(5-((4-Hydroxypiperidin-1-yl)methyl)pyridin-3-yl)-N-(6-(pyrrolidin-1-yl)pyridin-3-yl)-1H-indazole-3-carboxamide], the figures for the EC50 in assay [1] and in assay [2] were 43 nM and more than 100000 nM, respectively.
